Data from patent US11298367B2, “Prodrugs of substituted triazole derivatives and uses thereof” (Bayer Aktiengesellschaft, priority 2017, dated 2022).
Like-named read-outs stand apart in the source and are kept apart here.

Tests used:
[1] = system: human platelets; experiment: Inhibition of vasopressin induced aggregation of human platelets; format: cell-based; conditions: human platelet rich plasma, AVP 100 nM
Method: B-5. Inhibition of Vasopressin Induced Aggregation of Human Platelets for Verification of Prodrug Conversion into Drug
Human platelets endogenously express the V1a receptor. […] Therefore, platelets enriched from human blood may serve as a V1a expressing tissue for pharmacological studies with vasopressin antagonists.
To verify the conversion of prodrugs into the respective drugs, the prodrugs are incubated with and without alkaline phosphatase. Cleavage of the phosphate moiety by alkaline phosphatase converts the prodrug into the drug. As prodrug and underlying respective drug show different IC50 values, the value of the prodrug after alkaline phosphatase treatment resembles the IC50 of the respective drug.
100 μl of test compound at a concentration of 100 μM are incubated for 15 min with 500 units alkaline phosphatase at 37° C. in modified Tyrode buffer (134 mM NaCl, […], 0.34 mM NaH2PO4*H2O, 2.9 mM KCl, 5 mM HEPES, 5 mM Glucose) and stored at 4° C. until further use in the platelet aggregation assay.
Platelet-rich plasma (PRP) is obtained by centrifugation of the blood sample at 140 g for 20 min at room temperature. The resulting pellet is discarded and the PRP further centrifuged (11.000 rpm, 1 min) to produce platelet-poor plasma (PPP). Platelet aggregation is measured turbidimetrically using an aggregometer (APACT 4). The reaction is followed by monitoring changes in light transmission on 178 μL PRP aliquots, under continuous stirring at 37° C., against PPP control. Various concentrations of vasopressin antagonists (in 2 μL) are added to PRP 5 min before the addition of 20 μL AVP (final concentration 100 nM). The inhibitory effects of the compounds are determined by measuring the maximal amplitude of the aggregation curve compared with the control response. IC50 values are calculated on the basis of a concentration-response inhibition curve by an iterative nonlinear regression program. All values are expressed as mean values (Table 3A).

[2] = system: vasopressin (AVP) mediated changes of systemic and renal hemodynamics; experiment: Acute effects on vasopressin-mediated changes of systemic hemodynamics, renal blood flow and oxygenation in anesthetized rats; format: in vivo, rat; conditions: AVP 50 ng/kg/min + compound 30 μg/kg bolus, mean ± SD, n = 8
Method: B-11. Acute Effects on Vasopressin-Mediated Changes of Systemic Hemodynamics, Renal Blood Flow and Oxygenation in Anesthetized Rats
Experiments are performed on male Sprague Dawley rats (Charles River, Deutschland; 350-450 g body weight). In preparation for surgical procedures rats are anesthetized with isoflurane and placed on a heated table to maintain core body temperature at 37° C., assessed using a rectal thermometer inserted. Inhalation anesthesia with isoflurane is applied using a calibrated vaporizer to induce and maintain anesthesia with 5 vol. % and 2 vol. % isoflurane, respectively. A PE50 cannula is placed in the right arteria femoralis for monitoring mean arterial pressure (MAP). Another PE50 catheter is inserted into the vena femoralis for intravenous infusion. The left kidney is exposed by a flank incision and separated from the perirenal attachments. The kidney capsule remains intact. During surgery and the subsequent equilibration and control periods, the rats receive an intravenous infusion of saline (0.9% NaCl) at rate 100 μL/min. Renal measurements of renal blood flow (RBF) are recorded using a laser Doppler blood flow probe (Oxford Optronix, UK) that is attached and stabilized to the surface of the kidney. The probe is inserted into the renal cortex to a depth of 2 mm and another into the renal medulla at 4 mm. The renal blood flow, oxygen and temperature are measured by combined sensor probe (Oxford Optronix, UK). MAP, heart rate (HR), RBF, temperature and oxygen are continuously recorded. After surgery and equilibration, baseline measurements are determined for 20 minutes. The rats are then intravenously infused with vasopressin atrate 50 ng/kg/min in 100 μL/kg for 20 minutes. In the third period, the effect of combined infusion of vasopressin and adual vasopressin receptor antagonist (Example 82 of WO 2016/071212) or a selective V1a antagonist (Example 1) or vehicle that is applied as a bolus in different concentration is determined.

[3] = with alkaline phosphatase, read-out: IC50 with AP
[4] = without alkaline phosphatase, read-out: IC50 without AP

SMILES | IC50 [1, 3] | IC50 [1, 4] | HR (heart rate) [2] | MAP (mean arterial blood pressure) [2] | RBF (renal blood flow) [2] | pO2 (partial pressure of renal oxygen) [2]
NC(=O)c1nc(Cn2nc(-c3ccc(Cl)cc3)n(C[C@H](OP(=O)(O)O)C(F)(F)F)c2=O)nn1-c1ncccc1C(F)(F)F [Example 1, (2S)-3-[1-({5-Carbamoyl-1-[3-(trifluoromethyl)pyridin-2-yl]-1H-1,2,4-triazol-3-yl}methyl)-3-(4-chlorophenyl)-5-oxo-1,5-dihydro-4H-1,2,4-triazol-4-yl]-1,1,1-trifluoropropan-2-yl Dihydrogen Phosphate] | 12.7 nM | 145 nM | 276.20 ± 4.46 BPM | 103.50 ± 4.97 mmHg | 877.00 ± 43.01 U | 14.32 ± 1.13 mmHg
NC(=O)c1nc(Cn2nc(-c3ccc(Cl)cc3)n(C[C@H](O)C(F)(F)F)c2=O)nn1-c1ncccc1C(F)(F)F [Example 4A, 3-({3-(4-Chlorophenyl)-5-oxo-4-[(2S)-3,3,3-trifluoro-2-hydroxypropyl]-4,5-dihydro-1H-1,2,4-triazol-1-yl}methyl)-1-[3-(trifluoromethyl)pyridin-2-yl]-1H-1,2,4-triazole-5-carboxamide] | 10.2 nM | 21.1 nM | 270.50 ± 2.89 BPM | 114.80 ± 7.42 mmHg | 878.10 ± 96.92 U | 15.86 ± 4.01 mmHg
